From ChEMBL document CHEMBL3991601, “The target landscape of clinical kinase drugs” (Science, 2017)
Calls of active or inactive are those of the source. For most assays here, no stated cut-off is given here; in the data, actives have a measured Kd and inactives only a lower limit.

Assays:
[1] = target: T1, Interleukin-1 receptor-associated kinase 4 (Homo sapiens, UniProt Q9NWZ3)
T1 sequence (Q9NWZ3 whole entry): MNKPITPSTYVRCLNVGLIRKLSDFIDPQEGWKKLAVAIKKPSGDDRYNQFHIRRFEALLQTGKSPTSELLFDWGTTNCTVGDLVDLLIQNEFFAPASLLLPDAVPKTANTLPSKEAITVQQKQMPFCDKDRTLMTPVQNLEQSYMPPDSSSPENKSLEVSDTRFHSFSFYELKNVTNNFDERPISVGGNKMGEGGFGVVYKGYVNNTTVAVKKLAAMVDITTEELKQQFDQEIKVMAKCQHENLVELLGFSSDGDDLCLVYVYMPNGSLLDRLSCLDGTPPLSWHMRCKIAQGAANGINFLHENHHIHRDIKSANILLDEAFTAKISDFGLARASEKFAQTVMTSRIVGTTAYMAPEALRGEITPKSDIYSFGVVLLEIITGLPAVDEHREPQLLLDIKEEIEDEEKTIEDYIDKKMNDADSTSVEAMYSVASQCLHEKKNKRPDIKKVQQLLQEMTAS

[2] = target: T2, Exosome RNA helicase MTR4 (Homo sapiens, UniProt P42285)
T2 sequence (P42285 whole entry): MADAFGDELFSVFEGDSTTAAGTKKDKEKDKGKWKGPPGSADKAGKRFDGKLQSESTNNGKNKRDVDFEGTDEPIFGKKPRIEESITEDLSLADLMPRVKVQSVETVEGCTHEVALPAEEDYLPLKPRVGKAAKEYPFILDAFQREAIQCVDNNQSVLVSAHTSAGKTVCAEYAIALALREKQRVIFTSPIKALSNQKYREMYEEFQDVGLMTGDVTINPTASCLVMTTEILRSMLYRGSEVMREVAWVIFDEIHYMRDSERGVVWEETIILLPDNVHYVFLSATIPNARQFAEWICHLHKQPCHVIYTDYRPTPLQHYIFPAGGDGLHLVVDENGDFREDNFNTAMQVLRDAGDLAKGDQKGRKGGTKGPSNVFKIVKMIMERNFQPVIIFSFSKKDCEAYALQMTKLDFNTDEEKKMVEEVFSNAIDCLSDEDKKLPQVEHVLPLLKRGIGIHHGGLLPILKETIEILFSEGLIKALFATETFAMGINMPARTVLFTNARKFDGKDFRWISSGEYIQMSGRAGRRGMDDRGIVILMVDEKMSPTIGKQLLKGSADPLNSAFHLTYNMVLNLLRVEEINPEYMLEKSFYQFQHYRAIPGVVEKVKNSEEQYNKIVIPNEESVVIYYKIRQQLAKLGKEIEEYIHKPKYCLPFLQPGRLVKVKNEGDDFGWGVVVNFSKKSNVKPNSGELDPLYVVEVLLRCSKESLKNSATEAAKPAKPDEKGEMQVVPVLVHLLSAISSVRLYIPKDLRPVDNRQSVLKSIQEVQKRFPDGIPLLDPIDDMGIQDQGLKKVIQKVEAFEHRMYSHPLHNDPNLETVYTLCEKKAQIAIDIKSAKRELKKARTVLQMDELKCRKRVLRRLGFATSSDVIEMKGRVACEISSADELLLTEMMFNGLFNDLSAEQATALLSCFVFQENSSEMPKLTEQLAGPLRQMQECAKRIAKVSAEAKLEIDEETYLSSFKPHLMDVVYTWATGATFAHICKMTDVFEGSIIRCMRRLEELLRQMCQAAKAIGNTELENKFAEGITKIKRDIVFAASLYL

Activin receptor type-1 = target: T3, Activin receptor type-1 (Homo sapiens, UniProt Q04771)
T3 sequence (Q04771 whole entry): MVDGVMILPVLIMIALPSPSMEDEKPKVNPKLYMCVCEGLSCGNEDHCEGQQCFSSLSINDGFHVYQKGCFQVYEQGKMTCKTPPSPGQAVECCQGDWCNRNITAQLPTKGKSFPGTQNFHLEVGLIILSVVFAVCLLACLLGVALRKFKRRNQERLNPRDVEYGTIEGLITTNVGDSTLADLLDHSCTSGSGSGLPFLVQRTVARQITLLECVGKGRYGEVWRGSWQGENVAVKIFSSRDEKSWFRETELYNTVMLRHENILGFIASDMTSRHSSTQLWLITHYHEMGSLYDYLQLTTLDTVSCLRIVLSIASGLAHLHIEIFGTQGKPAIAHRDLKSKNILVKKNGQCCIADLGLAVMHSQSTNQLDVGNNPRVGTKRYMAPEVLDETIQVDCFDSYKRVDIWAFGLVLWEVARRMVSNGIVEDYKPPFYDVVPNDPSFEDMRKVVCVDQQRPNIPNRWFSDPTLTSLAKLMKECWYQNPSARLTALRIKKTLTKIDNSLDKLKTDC

[3] = target: Tyrosine-protein kinase ABL1 (Homo sapiens, UniProt P00519)
[4] = target: Tyrosine-protein kinase Lck (Homo sapiens, UniProt P06239)
[5] = target: T4, cGMP-dependent protein kinase 1 (Homo sapiens, UniProt Q13976)
T4 sequence (Q13976 whole entry): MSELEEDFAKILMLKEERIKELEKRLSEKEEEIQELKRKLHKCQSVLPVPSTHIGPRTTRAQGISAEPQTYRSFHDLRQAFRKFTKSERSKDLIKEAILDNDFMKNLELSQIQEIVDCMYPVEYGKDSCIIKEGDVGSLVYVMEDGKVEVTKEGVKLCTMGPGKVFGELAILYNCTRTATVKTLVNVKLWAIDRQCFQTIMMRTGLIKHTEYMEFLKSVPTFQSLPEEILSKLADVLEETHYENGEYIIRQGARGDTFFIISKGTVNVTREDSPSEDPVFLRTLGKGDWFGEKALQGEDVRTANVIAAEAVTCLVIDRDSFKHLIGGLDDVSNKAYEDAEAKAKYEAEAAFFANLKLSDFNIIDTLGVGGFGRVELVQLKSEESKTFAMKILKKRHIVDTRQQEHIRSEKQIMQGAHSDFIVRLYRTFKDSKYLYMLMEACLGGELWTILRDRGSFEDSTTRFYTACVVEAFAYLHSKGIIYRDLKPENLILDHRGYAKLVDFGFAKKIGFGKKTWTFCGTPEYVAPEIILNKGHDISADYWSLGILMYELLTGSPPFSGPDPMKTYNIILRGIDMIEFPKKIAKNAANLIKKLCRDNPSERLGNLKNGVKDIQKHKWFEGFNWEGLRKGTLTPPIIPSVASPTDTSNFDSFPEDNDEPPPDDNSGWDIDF

[6] = target: Serine/threonine-protein kinase N2 (Homo sapiens, UniProt Q16513)
Ephrin type-A receptor 4 = Ephrin type-A receptor 4 (Homo sapiens, UniProt P54764)
[7] = target: Serine/threonine-protein kinase PAK 4 (Homo sapiens, UniProt O96013)
[8] = target: BMP-2-inducible protein kinase (Homo sapiens, UniProt Q9NSY1)
Sequence of BMP-2-inducible protein kinase (Q9NSY1 whole entry): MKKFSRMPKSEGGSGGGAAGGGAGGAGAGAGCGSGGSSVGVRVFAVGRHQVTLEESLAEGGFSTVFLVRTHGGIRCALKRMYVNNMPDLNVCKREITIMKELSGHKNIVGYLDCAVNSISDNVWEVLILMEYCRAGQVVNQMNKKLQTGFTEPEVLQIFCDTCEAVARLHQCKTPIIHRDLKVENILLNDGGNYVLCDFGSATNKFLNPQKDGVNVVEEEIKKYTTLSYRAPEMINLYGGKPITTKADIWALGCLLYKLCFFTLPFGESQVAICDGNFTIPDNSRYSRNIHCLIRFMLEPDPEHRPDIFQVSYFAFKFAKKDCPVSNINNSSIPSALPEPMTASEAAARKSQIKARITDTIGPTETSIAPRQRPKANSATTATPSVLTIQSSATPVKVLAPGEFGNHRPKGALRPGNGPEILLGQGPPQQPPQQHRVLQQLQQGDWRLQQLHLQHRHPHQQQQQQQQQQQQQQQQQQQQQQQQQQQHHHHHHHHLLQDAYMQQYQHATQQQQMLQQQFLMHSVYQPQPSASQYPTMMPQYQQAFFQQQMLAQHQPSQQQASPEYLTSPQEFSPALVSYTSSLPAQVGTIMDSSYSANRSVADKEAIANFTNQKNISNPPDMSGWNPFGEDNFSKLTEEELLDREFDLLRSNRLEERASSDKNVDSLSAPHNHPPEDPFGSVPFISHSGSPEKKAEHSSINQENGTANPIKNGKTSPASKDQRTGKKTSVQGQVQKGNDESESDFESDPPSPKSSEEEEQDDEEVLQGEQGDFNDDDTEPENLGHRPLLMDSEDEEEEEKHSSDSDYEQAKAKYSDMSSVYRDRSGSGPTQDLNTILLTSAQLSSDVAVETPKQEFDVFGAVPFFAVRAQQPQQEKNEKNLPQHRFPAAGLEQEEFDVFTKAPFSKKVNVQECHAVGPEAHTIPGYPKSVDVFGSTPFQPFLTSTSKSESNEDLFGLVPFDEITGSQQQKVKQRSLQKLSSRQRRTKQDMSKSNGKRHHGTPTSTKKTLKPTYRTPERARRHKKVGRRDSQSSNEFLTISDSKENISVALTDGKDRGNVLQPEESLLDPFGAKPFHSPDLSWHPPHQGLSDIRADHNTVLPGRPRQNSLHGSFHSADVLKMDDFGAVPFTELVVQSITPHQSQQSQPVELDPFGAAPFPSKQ

Sequence of Tyrosine-protein kinase Lck (P06239 whole entry): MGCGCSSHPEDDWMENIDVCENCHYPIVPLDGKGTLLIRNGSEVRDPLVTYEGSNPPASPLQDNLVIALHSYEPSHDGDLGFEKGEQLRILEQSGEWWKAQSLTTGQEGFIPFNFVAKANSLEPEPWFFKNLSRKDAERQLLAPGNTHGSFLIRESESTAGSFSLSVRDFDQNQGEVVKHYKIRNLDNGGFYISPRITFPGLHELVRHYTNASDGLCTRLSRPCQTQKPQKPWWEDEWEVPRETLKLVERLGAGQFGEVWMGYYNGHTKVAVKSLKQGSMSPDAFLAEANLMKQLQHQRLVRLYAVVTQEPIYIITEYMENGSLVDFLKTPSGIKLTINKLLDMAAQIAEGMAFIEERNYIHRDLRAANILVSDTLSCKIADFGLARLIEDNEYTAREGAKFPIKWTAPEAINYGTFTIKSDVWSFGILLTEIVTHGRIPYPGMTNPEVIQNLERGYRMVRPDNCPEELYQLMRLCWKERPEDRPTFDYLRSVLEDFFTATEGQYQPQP
Sequence of Ephrin type-A receptor 4 (P54764 whole entry): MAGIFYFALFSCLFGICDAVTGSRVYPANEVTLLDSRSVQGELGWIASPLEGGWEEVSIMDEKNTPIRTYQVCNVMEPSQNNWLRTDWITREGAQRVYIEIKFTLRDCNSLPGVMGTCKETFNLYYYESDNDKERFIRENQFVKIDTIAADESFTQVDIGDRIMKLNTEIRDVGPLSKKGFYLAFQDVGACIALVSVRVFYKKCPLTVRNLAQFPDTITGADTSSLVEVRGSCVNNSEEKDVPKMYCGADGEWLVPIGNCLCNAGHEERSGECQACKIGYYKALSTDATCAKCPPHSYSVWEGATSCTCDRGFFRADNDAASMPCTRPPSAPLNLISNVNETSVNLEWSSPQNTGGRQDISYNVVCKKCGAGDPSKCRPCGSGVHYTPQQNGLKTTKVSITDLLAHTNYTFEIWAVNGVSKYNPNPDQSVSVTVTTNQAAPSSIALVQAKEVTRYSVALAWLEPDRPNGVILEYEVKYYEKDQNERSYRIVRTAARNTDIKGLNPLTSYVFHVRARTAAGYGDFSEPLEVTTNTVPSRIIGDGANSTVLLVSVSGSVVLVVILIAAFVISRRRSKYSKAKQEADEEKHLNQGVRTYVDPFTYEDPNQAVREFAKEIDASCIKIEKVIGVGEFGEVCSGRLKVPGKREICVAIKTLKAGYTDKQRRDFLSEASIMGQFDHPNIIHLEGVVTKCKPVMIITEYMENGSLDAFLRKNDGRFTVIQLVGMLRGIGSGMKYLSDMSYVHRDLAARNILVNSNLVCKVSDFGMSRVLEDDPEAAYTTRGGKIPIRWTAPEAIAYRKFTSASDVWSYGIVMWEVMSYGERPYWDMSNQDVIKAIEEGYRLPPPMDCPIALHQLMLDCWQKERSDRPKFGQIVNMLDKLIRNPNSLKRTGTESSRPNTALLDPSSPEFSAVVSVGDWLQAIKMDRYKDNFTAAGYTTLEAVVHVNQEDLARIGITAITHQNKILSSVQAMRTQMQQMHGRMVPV
Sequence of Tyrosine-protein kinase ABL1 (P00519 whole entry): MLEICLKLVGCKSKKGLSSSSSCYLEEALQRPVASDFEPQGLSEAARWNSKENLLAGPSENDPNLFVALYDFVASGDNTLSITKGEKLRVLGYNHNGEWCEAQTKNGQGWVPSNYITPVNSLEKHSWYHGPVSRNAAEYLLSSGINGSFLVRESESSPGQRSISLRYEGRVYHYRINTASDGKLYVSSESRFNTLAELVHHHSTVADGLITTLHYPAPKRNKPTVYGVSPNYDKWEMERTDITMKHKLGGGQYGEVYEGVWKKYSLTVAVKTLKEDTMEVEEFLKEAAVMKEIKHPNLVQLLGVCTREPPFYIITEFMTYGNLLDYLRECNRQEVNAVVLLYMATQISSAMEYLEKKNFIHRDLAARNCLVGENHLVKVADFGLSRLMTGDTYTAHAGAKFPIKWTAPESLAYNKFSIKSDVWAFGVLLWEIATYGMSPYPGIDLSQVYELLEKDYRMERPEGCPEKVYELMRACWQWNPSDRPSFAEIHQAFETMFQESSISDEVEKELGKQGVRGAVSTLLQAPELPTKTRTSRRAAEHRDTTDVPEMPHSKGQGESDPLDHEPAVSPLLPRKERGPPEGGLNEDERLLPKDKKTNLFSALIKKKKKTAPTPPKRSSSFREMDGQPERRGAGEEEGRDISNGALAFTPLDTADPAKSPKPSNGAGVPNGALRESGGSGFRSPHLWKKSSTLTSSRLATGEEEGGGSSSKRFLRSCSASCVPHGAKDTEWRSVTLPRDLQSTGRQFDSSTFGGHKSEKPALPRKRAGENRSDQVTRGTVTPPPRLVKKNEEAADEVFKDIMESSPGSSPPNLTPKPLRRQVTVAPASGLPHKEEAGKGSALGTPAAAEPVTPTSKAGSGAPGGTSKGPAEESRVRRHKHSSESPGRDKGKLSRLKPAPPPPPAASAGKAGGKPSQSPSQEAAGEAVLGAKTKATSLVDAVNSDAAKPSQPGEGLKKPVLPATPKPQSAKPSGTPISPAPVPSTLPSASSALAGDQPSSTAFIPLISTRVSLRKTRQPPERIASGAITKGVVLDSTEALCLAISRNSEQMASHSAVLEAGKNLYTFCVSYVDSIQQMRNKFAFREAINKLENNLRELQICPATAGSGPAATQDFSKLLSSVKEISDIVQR
Sequence of Serine/threonine-protein kinase N2 (Q16513 whole entry): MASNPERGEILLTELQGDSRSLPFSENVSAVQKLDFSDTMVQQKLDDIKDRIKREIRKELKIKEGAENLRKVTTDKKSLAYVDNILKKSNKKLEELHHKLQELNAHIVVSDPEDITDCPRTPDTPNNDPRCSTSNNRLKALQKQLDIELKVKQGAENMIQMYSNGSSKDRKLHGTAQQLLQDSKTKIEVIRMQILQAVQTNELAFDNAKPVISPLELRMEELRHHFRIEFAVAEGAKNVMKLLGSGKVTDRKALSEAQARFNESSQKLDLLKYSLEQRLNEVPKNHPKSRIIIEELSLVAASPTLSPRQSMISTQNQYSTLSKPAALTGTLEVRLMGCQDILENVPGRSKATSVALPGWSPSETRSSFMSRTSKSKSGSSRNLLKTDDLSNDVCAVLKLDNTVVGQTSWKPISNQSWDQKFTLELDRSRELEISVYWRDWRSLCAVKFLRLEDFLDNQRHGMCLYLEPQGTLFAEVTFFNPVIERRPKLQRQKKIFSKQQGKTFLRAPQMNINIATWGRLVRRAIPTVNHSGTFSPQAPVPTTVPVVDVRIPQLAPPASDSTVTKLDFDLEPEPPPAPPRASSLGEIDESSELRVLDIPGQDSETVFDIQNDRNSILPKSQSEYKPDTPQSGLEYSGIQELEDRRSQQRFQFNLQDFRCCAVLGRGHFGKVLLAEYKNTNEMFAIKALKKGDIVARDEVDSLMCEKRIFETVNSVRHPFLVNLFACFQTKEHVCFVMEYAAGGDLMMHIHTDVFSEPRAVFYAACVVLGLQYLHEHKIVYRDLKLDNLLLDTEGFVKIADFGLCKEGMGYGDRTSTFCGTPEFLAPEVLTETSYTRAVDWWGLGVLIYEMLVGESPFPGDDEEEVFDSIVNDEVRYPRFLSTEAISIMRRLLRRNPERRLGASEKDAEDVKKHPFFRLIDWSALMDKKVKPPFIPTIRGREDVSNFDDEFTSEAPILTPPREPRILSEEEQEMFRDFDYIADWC

| Compound | Kd [1] | Kd [2] | Kd (Activin receptor type-1) | Kd [3] | Kd [4] | Kd [5] | Kd [6] | Kd (Ephrin type-A receptor 4) | Kd [7] | Kd [8] |
| --- | --- | --- | --- | --- | --- | --- | --- | --- | --- | --- |
| COc1cc(N2CCC(N3CCN(C)CC3)CC2)ccc1Nc1ncnc(Nc2ccccc2S(=O)(=O)C(C)C)n1 [ASP-3026] | > 30 µM (inactive) | > 30 µM (inactive) | > 30 µM (inactive) | 5.26 µM (active) | 1.27 µM (active) | > 30 µM (inactive) | > 30 µM (inactive) | > 30 µM (inactive) | > 30 µM (inactive) | > 30 µM (inactive) |
| CNS(=O)(=O)Nc1nccc(Cc2c(C)c3ccc(Oc4ncccn4)cc3oc2=O)c1F [AVUTOMETINIB] | > 30 µM (inactive) | > 30 µM (inactive) | > 30 µM (inactive) | > 30 µM (inactive) | > 30 µM (inactive) | > 30 µM (inactive) | > 30 µM (inactive) | > 30 µM (inactive) | > 30 µM (inactive) | > 30 µM (inactive) |
| COc1cc(CCc2cc(NC(=O)c3ccc(N4C[C@@H](C)N[C@@H](C)C4)cc3)n[nH]2)cc(OC)c1 [AZD-4547] | > 30 µM (inactive) | > 30 µM (inactive) | > 30 µM (inactive) | > 30 µM (inactive) | > 30 µM (inactive) | > 30 µM (inactive) | > 30 µM (inactive) | > 30 µM (inactive) | > 30 µM (inactive) | > 30 µM (inactive) |
| Cc1cc([C@@H](C)Nc2ccccc2C(=O)O)c2nc(N3CCOCC3)cc(=O)n2c1 [AZD-6482] | > 30 µM (inactive) | > 30 µM (inactive) | > 30 µM (inactive) | > 30 µM (inactive) | > 30 µM (inactive) | > 30 µM (inactive) | > 30 µM (inactive) | > 30 µM (inactive) | > 30 µM (inactive) | > 30 µM (inactive) |
| COc1ccc(-c2ccc3c(N4CCOC[C@@H]4C)nc(N4CCOC[C@@H]4C)nc3n2)cc1CO [AZD-8055] | > 30 µM (inactive) | > 30 µM (inactive) | > 30 µM (inactive) | > 30 µM (inactive) | > 30 µM (inactive) | > 30 µM (inactive) | > 30 µM (inactive) | > 30 µM (inactive) | > 30 µM (inactive) | > 30 µM (inactive) |
| C[C@@H](Nc1cc(F)cc(F)c1)c1cc(C(=O)N(C)C)cc2c(=O)cc(N3CCOCC3)oc12 [AZD-8186] | > 30 µM (inactive) | > 30 µM (inactive) | > 30 µM (inactive) | > 30 µM (inactive) | > 30 µM (inactive) | > 30 µM (inactive) | > 30 µM (inactive) | > 30 µM (inactive) | > 30 µM (inactive) | > 30 µM (inactive) |
| Cc1cc2c(F)c(Oc3ncnn4cc(OC[C@@H](C)OC(=O)[C@H](C)N)c(C)c34)ccc2[nH]1 [BRIVANIB ALANINATE] | > 30 µM (inactive) | > 30 µM (inactive) | > 30 µM (inactive) | > 30 µM (inactive) | > 30 µM (inactive) | > 30 µM (inactive) | > 30 µM (inactive) | > 30 µM (inactive) | > 30 µM (inactive) | > 30 µM (inactive) |
| CNC(=O)c1ccc(-c2cnc3ncc(Cc4ccc5ncccc5c4)n3n2)cc1F [CAPMATINIB] | > 30 µM (inactive) | > 30 µM (inactive) | > 30 µM (inactive) | > 30 µM (inactive) | > 30 µM (inactive) | > 30 µM (inactive) | > 30 µM (inactive) | > 30 µM (inactive) | > 30 µM (inactive) | > 30 µM (inactive) |
| O=C(c1ccc(F)c(F)c1Nc1ccc(I)cc1F)N1CC(O)([C@@H]2CCCCN2)C1 [COBIMETINIB] | > 30 µM (inactive) | > 30 µM (inactive) | > 30 µM (inactive) | > 30 µM (inactive) | > 30 µM (inactive) | > 30 µM (inactive) | > 30 µM (inactive) | > 30 µM (inactive) | > 30 µM (inactive) | > 30 µM (inactive) |
| COC(=O)N[C@@H](C)CNc1nccc(-c2cn(C(C)C)nc2-c2cc(Cl)cc(NS(C)(=O)=O)c2F)n1 [ENCORAFENIB] | > 30 µM (inactive) | > 30 µM (inactive) | > 30 µM (inactive) | > 30 µM (inactive) | > 30 µM (inactive) | > 30 µM (inactive) | > 30 µM (inactive) | > 30 µM (inactive) | > 30 µM (inactive) | > 30 µM (inactive) |
| CO[C@H]1C[C@@H]2CC[C@@H](C)[C@@](O)(O2)C(=O)C(=O)N2CCCC[C@H]2C(=O)O[C@H]([C@H](C)C[C@@H]2CC[C@@H](OCCO)[C@H](OC)C2)CC(=O)[C@H](C)/C=C(\C)[C@@H](O)[C@@H](OC)C(=O)[C@H](C)C[C@H](C)/C=C/C=C/C=C/1C [EVEROLIMUS] | > 30 µM (inactive) | > 30 µM (inactive) | > 30 µM (inactive) | > 30 µM (inactive) | > 30 µM (inactive) | > 30 µM (inactive) | > 30 µM (inactive) | > 30 µM (inactive) | > 30 µM (inactive) | > 30 µM (inactive) |
| COCCNCc1ccc(-c2cc3nccc(Oc4ccc(NC(=S)NC(=O)Cc5ccc(F)cc5)cc4F)c3s2)nc1 [GLESATINIB] | > 30 µM (inactive) | > 30 µM (inactive) | > 30 µM (inactive) | 0.241 µM (active) | 0.092 µM (active) | > 30 µM (inactive) | > 30 µM (inactive) | > 30 µM (inactive) | > 30 µM (inactive) | > 30 µM (inactive) |
